# According to ChEMBL document CHEMBL1667856, “Efficient synthesis and biological evaluation of 1,3-benzenedicarbonyl dithioureas” (Bioorg Med Chem Lett, 2011):
# Several values for one entry are separate records, joined by “and”; a condition that tells them apart may be missing. Equal values may be shown once.
# Legend:
# [1] = Cytotoxicity against human CNE2 cells after 72 hrs by MTT assay; format: functional, cell-based, CNE-2
# KB = experiment: Cytotoxicity against human KB cells after 72 hrs by MTT assay; format: functional, cell-based
Structure (SMILES),"IC50 ([1]; Homo sapiens, CNE-2, 72 h) [µM]","IC50 (KB; Homo sapiens, KB, 72 h) [µM]",IC50 ([1]; cne-2),IC50 (KB; kb)
O=C(NC(=S)Nc1ccccc1Cl)c1cccc(C(=O)NC(=S)Nc2ccccc2Cl)c1,> 50,38.8,,
O=C(NC(=S)Nc1ccccc1F)c1cccc(C(=O)NC(=S)Nc2ccccc2F)c1,38.6,45,,
O=C(NC(=S)Nc1cccc(Cl)c1)c1cccc(C(=O)NC(=S)Nc2cccc(Cl)c2)c1,16.3,12,,
O=C(NC(=S)Nc1ccc(F)cc1)c1cccc(C(=O)NC(=S)Nc2ccc(F)cc2)c1,33,43.2,,
O=C(NC(=S)Nc1ccccc1O)c1cccc(C(=O)NC(=S)Nc2ccccc2O)c1,,,9.91 µM and > 50 µM,10.7 µM and > 50 µM
O=C(NC(=S)Nc1ccccc1C(F)(F)F)c1cccc(C(=O)NC(=S)Nc2ccccc2C(F)(F)F)c1,18.5,26.1,,
O=C(NC(=S)Nc1cccc(Br)c1)c1cccc(C(=O)NC(=S)Nc2cccc(Br)c2)c1,18.6,15.2,,
Cc1ccccc1NC(=S)NC(=O)c1cccc(C(=O)NC(=S)Nc2ccccc2C)c1,> 50,> 50,,
O=C(NC(=S)Nc1ccc([N+](=O)[O-])cc1)c1cccc(C(=O)NC(=S)Nc2ccc([N+](=O)[O-])cc2)c1,> 50,35.7,,
O=C(NC(=S)Nc1ccc(O)cc1)c1cccc(C(=O)NC(=S)Nc2ccc(O)cc2)c1,16.6,20,,
Cc1ccc(NC(=S)NC(=O)c2cccc(C(=O)NC(=S)Nc3ccc(C)cc3)c2)cc1,33,15.3,,
O=C(NC(=S)Nc1ccc(Br)cc1)c1cccc(C(=O)NC(=S)Nc2ccc(Br)cc2)c1,32.7,23.2,,
COc1ccc(NC(=S)NC(=O)c2cccc(C(=O)NC(=S)Nc3ccc(OC)cc3)c2)cc1,30.3,> 50,,
O=C(NC(=S)Nc1ccccc1)c1cccc(C(=O)NC(=S)Nc2ccccc2)c1,> 50,> 50,,
O=C(NC(=S)Nc1ccc(Cl)cc1)c1cccc(C(=O)NC(=S)Nc2ccc(Cl)cc2)c1,15.7,13.7,,
O=C(NC(=S)Nc1ccccc1Br)c1cccc(C(=O)NC(=S)Nc2ccccc2Br)c1,> 50,47.1,,
O=c1[nH]cc(F)c(=O)[nH]1 [FLUOROURACIL],,15.9,,
